# Source: PMC6207618, “The GbsR Family of Transcriptional Regulators: Functional Characterization of the OpuAR Repressor” (Frontiers in Microbiology, 2018)
# What was measured:
# [1] = system: opuAA-treA reporter activity; experiment: opuAA-treA reporter fusion TreA enzyme activity assay; format: cell-based, Bacillus subtilis; conditions: strain STHB10 (OpuAR+), SMM with 1.2 M NaCl, 1 mM compatible solute
# Excerpt: opuAAB.infantis′-treA reporter gene fusions were constructed using primers opuAR treA Frag1/2 rev and either opuAR treA Frag1/4 for (Supplementary Table S2) to amplify a 1940-bp DNA fragment from chromosomal DNA of B. infantis NRRL B-14911, including the predicted opuA promoter region and the coding region of opuAR, or primer opuAR treA Frag2 for, to generate a fragment lacking the opuAR gene. PCR products, which had been cut with BamHI and SmaI, were cloned into the vector pJMB1 ([Hoffmann et al., 2013]). This vector carries a promoterless treA gene, whose gene product [phospho-α-(1,1)-glucosidase] can be assayed and photometrically quantitated with the chromogenic substrate α-PNPG ([Gotsche and Dahl, 1995]). The plasmids resulting for the construction of the treA transcriptional reporter gene fusions were named pSTH33 (opuAR^+/opuAAB.i-treA) and pSTH34 (opuAR^-/opuAAB.i-treA) (Supplementary Table S3). All treA reporter gene fusions were stably integrated as a single copy into the chromosome of various B. subtilis strains at the amyE gene; all of these strains carry a gene disruption mutation of the native chromosomal treA gene of B. subtilis to allow the assignment of the measured TreA enzyme activity to the reporter gene constructs (Supplementary Table S1).
# Aliquots (1.5 ml) from cultures of B. subtilis strains carrying chromosomal opuAAB.i′-treA reporter operon gene fusions (Supplementary Table S1) were used to monitor the expression levels by assaying the TreA reporter enzyme activity as described previously using the chromogenic substrate α-PNPG ([Gotsche and Dahl, 1995]). The TreA-specific activity is expressed in units per milligram of protein. Protein concentrations were estimated from the optical density of the cell culture harboring the treA reporter operon gene fusion ([Miller, 1972]).
# FIGURE 6 Influence of the B. subtilis GbsR-like regulators on the expression of opuA from B. infantis and its transcriptional response to the presence of compatible solutes. (A) Genetic structure of the opuAA-treA transcriptional reporter fusions. (B) The opuAA-treA reporter gene fusions, either including or lacking the B. infantis opuAR gene, were integrated into the chromosome of the B. subtilis strain STHB05; it carries gene disruption mutations of all three GbsR-like regulators, resulting in strains STHB10 (OpuAR^+) and STHB11 (OpuAR^-). […] The opuAA-treA reporter strains were grown in SMM to early exponential growth phase (OD578 1–1.5) and then assayed for TreA reporter enzyme activity. The shown data represent four independent biological replicates and each culture was assayed twice. (C) Strain STHB10 (opuAR^+/opuAA-treA) was grown in SMM with increasing NaCl concentrations until each of these cultures reached mid-exponential growth phase (OD578 of about 1.5) and were then harvested for TreA reporter enzyme activity assays. The given data are the means and standard deviations of four independent biological replicates and each culture was assayed twice. (D) Expression of the opuAA-treA reporter gene construct in response to extracellular provided compatible solutes. The opuAA-treA reporter fusion strains STHB10 (OpuAR^+) and STHB11 (OpuAR^-) were cultivated in SMM containing 1.2 M NaCl either in the absence or presence of 1 mM of the indicated compatible solutes. The opuAA-treA reporter fusion strains were grown to early exponential growth phase (OD578 1–1.5) and then assayed for TreA reporter enzyme activity. The given data are the means and standard deviations of four independent biological replicates and each culture was assayed twice.
# To identify possible effector molecules for the B. infantis OpuAR protein, we conducted a series of in vivo experiments in which we assessed any possible inducing effects of compatible solutes on opuAA-treA transcriptional activity in an OpuAR-dependent fashion (Figure 6D).
# [2] = molecular target: B. infantis OpuAR protein (OpuAR-Strep-tag II recombinant protein) (Bacillus infantis NRRL B-14911); experiment: SEC; HiLoad 16/600 Superdex 200 pg; 2 ml of affinity-purified OpuAR (1.5 mg/ml) loaded straight after purification; 100 mM KPP (pH 8), 300 mM NaCl; column standardised with thyroglobulin, albumin, ovalbumin and cytochrome C
stoichiometry N [2],Molecule,Induction of opuAA-treA reporter activity (OpuAR-dependent) [1]
–,C[N+](C)(C)CCOS(=O)(=O)[O-] [choline-O-sulfate],did not serve as inducers
–,CC1=NCC[C@@H](C(=O)O)N1 [ectoine],did not serve as inducers
2,B. infantis OpuAR protein (OpuAR-Strep-tag II recombinant protein) (natural protein),–
